# Measurements from patent publication US20150093333A1, “COMPOSITIONS, METHODS AND USES FOR PEPTIDES IN DIAGNOSIS, PROGRESSION AND TREATMENT OF CANCERS” (THE REGENTS OF THE UNIVERSITY OF COLORADO, body corporate, priority 2003, published 2015).
# Key:
# [1] = tested on: PS-exposing cell membranes; assay: Fluorescence staining of PS-exposing membranes in dissected gonads of C. elegans; type: in vivo; details: wild type (N2), tat-1(tm3117) and ced-7(n2094) animals
# Experimental: Fluorescence staining assays were carried out in an acceptible C. elegans model with PS-exposing cell membranes. […] NBD-MARCKS-ED was used to stain the dissected gonads of wild type (N2) animals, tat-1(tm3117) mutant animals, and engulfment-deficient ced-7 (n2094) mutant animals, respectively. 36 hour old hermaphrodite adult animals were collected and gently dissected by cutting their heads in a depression slide with a gonad dissection buffer (previously presented) to expose the gonads. The exposed gonads were then washed once in the dissection buffer and transferred to a dissection buffer containing 4 μM of Hoechst 33342 and 20 μM of NBD labeled MARCKS-ED peptide, 20 μM NBD-MARCKSmut1 peptide, or 10 nM Alexa Fluor 488-conjugated Annexin-V for 45 minutes. Gonads were washed one more time in the dissection buffer, placed on a 5% agarose pad, and visualized using a Nomarski microscope equipped with an epifluorescence detector.
# FIGS. 6A-6C illustrate exemplary staining results using MARCKS derived peptides and Annexin V. PS is typically kept in the inner leaflet of plasma membranes in living cells and is exposed on the cell surface only under certain cellular events, i.e., when cells undergo apoptosis or lose the ability to maintain the PS asymmetry with a tat-1 gene mutation. FIG. 6A represents the staining results with labeled MARCKS-ED in wild type and mutants C. elegans. […] FIG. 6B represents the staining results with labeled MARCKSmut1 in wild type and mutants C. elegans. […] In FIGS. 6A-6B, nuclei were stained with Hoechst 33342. Annexin-V, a known PS-sensor, was also used to stain the gonads of tat-1 and ced-7 mutant C. elegans. […] Hoechst33342 (4 μM), FITC-AnnexinV (10 nM) and Nomarski images are shown. […] Scale bar=10 μm.
# [2] = molecular target: lipid vesicles 60% POPC:15% cholesterol:15% POPE:10% POPS; assay: Fluorescence anisotropy titration of NBD-labeled MARCKS peptides with lipid vesicles; type: binding
# Experimental: In another example, because fluorescence enhancement assays could not distinguish the contributions between different degrees of membrane penetration and binding affinity, fluorescence anisotropy assay was performed to specifically measure the binding affinity of the MARCKS derived peptides. The NBD-labeled peptides (1 μM) were titrated by synthetic liposomes of various sizes (30, 100, and 400 nm). Fluorescence anisotropy was recorded using a Fluorolog-3 fluorometer. The mixture was allowed to equilibrate for 2 minutes prior to the next titration. The excitation wavelength was set to λex=480 nm whereas the emission filter was set to λem=545 nm. The voltage was set to 250 V throughout the experiment. Blank PBS (pH=7.40) was titrated to NBD-labeled peptides as a negative control, where negligible anisotropy change was observed. The following equation was used to determine the dissociation constants as previously reported: Fb=Kp [L]/(1+KP[L]), where Fb expresses the fraction of peptide bound to lipids, Kp expresses the molar partition coefficient and [L] expresses the lipid concentration.
# Lipid vesicles were titrated to NBD-labeled MARCKS-ED, MARCKSmut1, or MARCKSmut2 peptides. Since the peptide partitions between the hydrophobic lipid bilayer and the aqueous solvent, the molar partition coefficient is often reported. By definition, the apparent dissociation constant (Kd), described as the lipid concentration where 50% of the peptide is bound, is the reciprocal of the molar partition coefficient (Kp). Fluorescence anisotropy assay results indicated efficient curvature sensing by MARCKS-ED. FIG. 4C represents an exemplary fluorescence anisotropy titration of MARCKS-ED with various lipid vesicles. FIG. 4D provides data of fluoresence anisotropy titration of various MARCKS derived peptides. Lipid vesicles used in the experiments represented by FIGS. 4C-4D contained 60% POPC:15% cholesterol: 15% POPE: 10% POPS. […] As a comparison, C2AB illustrated a 1.9 fold increase in binding to smaller vesicles (105 nm) relative to the larger ones (252 nm). […] In addition, electrostatic interactions of MARCKSmut2 were also compromised. […] Such defects would permit the Phe residue to insert and stabilize the highly curved membranes.
# [3] = tested on: synthetic lipid vesicles; assay: Fluorescence enhancement assay of NBD-labeled MARCKS peptides with synthetic vesicles; type: binding
# Text: In another exemplary method, lipid vesicles were employed to the curvature-sensing behavior of the MARCKS derived peptides with various sizes and lipid components. The membrane curvature is defined as the reciprocal of the diameter of a particular particle, e.g., smaller-sized vesicles present highly curved membrane bilayers. A series of lipid models were made to represent various lipid components that closely resemble the lipid composition of biological membranes. […] Dynamic light scattering (DLS) and negative-stain transmission electron microscopy (TEM) were performed to confirm the different vesicle sizes following the pressure-controlled extrusion process through different membrane diameter pores. Commercial polystyrene beads were used as the calibration standard for the vesicle size validation experiments. Furthermore, a time-course experiment was carried out to confirm the stability of the vesicles up to 16 hours. Three different membrane diameters were extruded for the following biophysical characterizations: 30 nm, 100 nm, 400 nm, reflecting different membrane curvatures.
# Next, a fluorescence enhancement assay was conducted to further quantify the curvature- and PS-sensing behavior of MARCKS-ED. Appropriate controls were performed to confirm that the fluorophore alone had no effect on the observed fluorescence enhancement (data not shown). FIG. 4 represents histogram data of fluorescence enhancement assay with and fluorescence anisotropy titration of the NBD labeled MARCKS derived peptides. Upon binding to lipid vesicles, the fluorescence intensity of NBD-MARCKS-ED increased due to vesicle binding and changes in the hydrophobic environment surrounding the fluorophore, concurring with a slight blue shift of the maximum emission wavelength. The emission spectra of all NBD-labeled peptides were recorded using a Fluorolog-3 fluorometer with λex=480 nm. The peptides and protein were tested at a concentration of 500 nM in PBS (pH 7.40) treated with 500 μM synthetic vesicles of different vesicles sizes. […] The positive control C2AB (200 nM) from the rat Synaptotagmin-1 (Syn-1) protein (G374, residues 96-421) was treated with CaCl2 (2.5 mM) and observed with λex of 275 nm and emission range of 300-450 nm. The untreated peptide and Ca^2+-C2AB samples were corrected by the PBS (pH=7.40) blank solution for the peptides and PBS with Ca^2+ for the Ca^2+-C2AB sample. All samples were prepared and incubated overnight in 4° C.
# FIG. 4A illustrates a histogram plot of fluorescence intensity of MARCKS-ED treated with lipid vesicles of various sizes. […] Last, the fluorescence intensity differences were less significant with vesicles containing no PS. […]
sequence,measurement,setting,value
KKKKKRFSFKKSFKLSGFSFKKNKK [MARCKS-ED],staining of PS-exposed membranes,[1],recognizes PS exposed on the surface of all germ cells in the tat-1 (tm3117) mutant and un-engulfed apoptotic germ cell corpses in the ced-7(n2094) mutant
same,Kd,[2]; 30 nm pore size lipid vesicles containing 10% PS,24 ± 3 µM
same,Kd,[2]; 100 nm pore size lipid vesicles containing 10% PS,42 ± 13 µM
same,Kd,[2]; 400 nm pore size lipid vesicles containing 10% PS,86 ± 20 µM
same,reversal of binding by CaM,[3]; addition of CaM,could be partially reversed
same,"fluorescence intensity increase, 30 nm vs 400 nm vesicles","[3]; peptide 500 nM, 500 μM vesicles containing PS",approximately 1.5 fold
